{"source": "patent US11419902B2", "about": "“Compositions comprising bacterial strains” (4D Pharma Research Limited, priority 2018, dated 2022)", "key": {"[1]": {"test_system": "β3Tubulin", "assay": "β3Tubulin expression in SH-SY5Y cells (immunostaining, immunoblotting)", "assay_type": "cell-based", "settings": "undifferentiated SH-SY5Y cells, 10% bacterial supernatant 24 h, vs untreated cells", "method": "Cells were seeded onto 8-well chamber slides (Marienfeld Laboratory Glassware) at 5×10^4 cells/well overnight and were treated with 10% bacterial supernatant for 24 h. For differentiation, cells were treated with 10 nM RA for 5 days before treating with cell-free bacterial supernatant for 24 h.\nAfterwards, the cells were fixed with 4% paraformaldehyde in PBS for 20 minutes at room temperature (RT). Fixed cells were washed with PBS, and permeabilized with 1% Triton X-100 in PBS for 10 minutes. After washing with PBS, the slides were incubated with blocking buffer (4% BSA/PBS) for 1 h at RT before adding anti-MAP2 antibody or β3-tubulin (sc-74421 and sc-80005 respectively, Santa Cruz Biotechnology Inc) diluted in 1% BSA/PBS for 12 h at 4° C. They were then washed twice with PBS, followed by incubation with Alexa Flour 488 conjugated anti-mouse (Molecular Probes Inc) and Alexa Flour 594 conjugated Phalloidin (ab176757, Abcam) for 1 h at RT. […]\nSH-SY5Y cells cultured under the indicated conditions described above, treated with MRx0029 for 24 h and then lysed in RIPA buffer containing cocktail of protease inhibitors (Roche Diagnostics, UK). […] The blots were then incubated with the appropriate horseradish peroxidase (HRP)-conjugated secondary antibody, and proteins were detected by chemiluminescence detection kit (Pierce Biotechnology, Rockford, Ill.). […]"}, "[2]": {"test_system": "IL-8", "assay": "IL-8 secretion in HMC3 cells (ELISA)", "assay_type": "cell-based, Human", "settings": "10% cell-free supernatant 24 h, in the absence of stimulation (no TNF-α)", "method": "Human microglia HMC3 cells were grown in glutamine-supplemented EMEM media containing 15% heat inactivated FBS and 100 U/ml penicillin and 100 μg/ml streptomycin. HMC3 cells were plated in 24 well plates at a density of 50,000 cells/well. Cells were left in CO2 incubator to rest for 48 h. The cells were then washed in blank EMEM and pre-treated in 2% FBS growth media with 10 ng/ml TNF-α for 1 h. Thereafter 10% cell-free bacterial supernatants for NCIMB 42787 stationary growth cultures (isolated as described above) were added to TNF-α-treated and untreated wells and incubated in CO2 incubator at 37° C. for 24 h. Cell-free supernatants were collected and centrifugated at 10,000×g for 3 min and 4° C. Samples were aliquoted in 1.5 ml microtubes and stored in −80° C. for hIL-8 ELISA.\nSecretion of IL-8 was analysed using hIL-8 Standard ELISA Kits, according to the manufacturer's protocol in the cell-free supernatants from HMC3 cells treated as described above. Samples were measured at 405 nm with correction wavelength set at 655 nm on a microplate reader (iMark, Bio-Rad). Raw data were plotted and analysed using GraphPad Prism 7 software."}, "[3]": {"test_system": "ERK signalling (phosphorylated ERK1 and 2/total ERK)", "assay": "ERK signalling in SKMEL28 cell line (Western blot)", "assay_type": "cell-based", "settings": "SKMEL28, relative to the negative control (YFCA+)", "method": "Following 24 h treatment with the appropriate drugs either in presence of 10% bacterial supernatant or absence (YCFA+), protein extracts were obtained by lysing cells in RIPA buffer (R0278; Sigma Aldrich) supplemented with protease inhibitors (cOmplete Protease Inhibitor Cocktail Tablets; Roche, Switzerland) and 1 mM/L sodium orthovanadate, 0.5 mM/L PMSF. Protein quantification was done by the BCA protein assay. Equal amounts of total protein (20 μg/lane) were then separated by SDS-PAGE on 4-15% gradient gel (BioRad) and transferred to polyvinylidene difluoride (PVDF) membranes (Thermo Fisher Scientific, Loughborough). […]\nProteins of interest were detected with the appropriate HRP-conjugated secondary antibody (1:10,000, Thermo Fisher Scientific, Loughborough), developed with the ECL Western blotting Super Signal PicoPlus substrate (34577; Thermo Fisher Scientific, Loughborough), and visualised in Chemidoc XRS Imager (BioRad).\nThe effects of the following treatments were assessed on the SKMEL28 melanoma cell line (V600E oncogenic mutation in BRAF): (1) MRx0029; (2) Vemurafenib (VEMU) in YCFA+ medium; (3) VEMU and MRx0029; (4) Azacytidine-C (Aza-c) in YCFA+ medium; (5) Aza-c and MRX0029; (6) VEMU, Aza-c and MRx0029."}, "[4]": {"test_system": "histone deacetylase", "assay": "Histone deacetylase activity in HT-29 cells", "assay_type": "cell-based", "settings": "10% cell free supernatant, 48 hours", "method": "Cell free supernatants of stationary phase bacterial cultures were isolated by centrifugation and filtering in a 0.22 uM filter. HT-29 cells were used 3 days post confluence and stepped down in 1 mL DTS 24 hours prior to commencement of the experiment. The HT-29 cells were challenged with 10% cell free supernatant diluted in DTS and was is left to incubate for 48 hours. […] proteins were then extracted using the Sigma Aldrich […] extraction kit and samples were snap frozen prior to HDAC activity measurement. HDAC activity was assessed fluorometrically using the Sigma Aldrich (UK) kit."}}}
{"substance": "Megasphaera massiliensis MRx0029", "values": [{"measurement": "expression of β3Tubulin", "setting": "[1]", "value": "increases the expression of β3Tubulin"}, {"measurement": "IL-8 secretion", "setting": "[2]", "value": "induces IL-8 secretion"}, {"measurement": "ERK signalling", "setting": "[3]", "value": "reduced ERK signalling"}, {"measurement": "levels of histone deacetylase activity", "setting": "[4]", "value": "able reduce the levels of histone deacetylase activity"}]}
